Test results published in patent US4062948A, “Dihydromocimycin antibiotics” (Gist-Brocades N.V., priority 1970, dated 1977).

What was measured:
[1] = tested on: organisms of the Mycoplasma genus (pleuro-pneumonia like organisms); test: in vitro activity against Mycoplasma genus; type: cell-based
mice = test: Acute toxicity in mice; type: in vivo
Text: The toxicity of the antibiotic has been studied in various animals.

Treponema hyodysenteriae = test: early experiments against Treponema dysentery; type: in vivo; conditions: swine
Protocol: In an early stage of investigation, it was presumed that mocimycin, having a similar anti-microbial spectrum to that of tylosin (Merck Index, 8th Ed. page 1089), might be effective against Treponema hyodysenteriae causing Treponema dysentery of Vibrio Doyle, one of the most common swine diseases. […] For that reason, no further investigations were carried out.

Actinobacillus equuli = test: activity against Actinobacillus equuli (in words); type: cell-based

CC=CC=CC1OC(O)(C(CC)C(=O)NCC=CC=C(C)C(OC)C(C)C2OC(C=CC=CC=C(C)C(=O)c3c(O)cc[nH]c3=O)C(O)C2O)C(O)C(O)C1(C)C (centres unmarked) [mocimycin]
activity in vitro [1]: considerable activity in vitro
lethality (mice; 1,000 mg/kg i.p., mice): does not kill mice
acute toxicity (mice; various animals): very low
activity against Treponema dysentery compared with tylosin (Treponema hyodysenteriae): active against this disease, but not more so than tylosin
activity (Actinobacillus equuli): active
